Source: patent US10195185B2, “3-(1H-imidazo[4,5-C]pyridin-2-yl)-1H-pyrazolo[4,3-B]pyridines and therapeutic uses thereof” (Samumed, LLC, priority 2015, dated 2019)

Experiments:
Format in all cases: cell-based
[1] = system: IL-6 in human monocyte cell line (THP-1 cells); assay: IL-6 inhibition in LPS-stimulated THP-1 cells (HTRF); details: IL-6 in LPS-stimulated THP-1 cells; for EC50: HTRF; for inhibition at 10 µM: read-out: percent inhibition in brackets beside EC50 >10 μM
In short: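 THP-1 cells, serum-reduced (1% FBS) for 24 h, were preincubated with compound (10-point 1:3 series from 10 μM, 0.1% DMSO) for 2 h, then stimulated with 500 ng/mL LPS for 22 h at 37° C. IL-6 was read by HTRF (665/620 nm ratio) and normalized to DMSO. EC50 from four-parameter fit; % inhibition at 10 μM given if EC50 >10 μM.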

SW480 colon cancer cells = assay: Cell viability assay (CellTiter-Blue), four days; details: Homo sapiens, 96 h; for inhibition at 10 µM: read-out: percent inhibition at 10 μM (given for EC50 of >10 μM); for EC50: CellTiter-Blue cell viability
In short: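 SW480 colon cancer cells (~2×10^3/well) exposed to 8-point 1:3 dilutions from 10 μM to 0.0045 μM for four days at 37 °C/5% CO2. Viability read by resazurin (CellTiter-Blue) fluorescence after ~3 h, Ex 560/Em 590 nm. EC50 from non-linear regression; percent inhibition at 10 μM given when EC50 >10 μM.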

[2] = system: Wnt activity (Wnt-responsive human Sp5 promoter, TCF/LEF binding sites) in SW480 colon carcinoma cells; assay: Wnt activity screening assay: Sp5-Luc luciferase reporter gene in SW480 cells; details: for EC50: 10-point dose-response from 10 μM, incubated overnight; for inhibition at 10 µM: given for EC50 of >10 μM, read-out: percent inhibition at 10 μM
In short: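 First, hygromycin-selected SW480 Sp5-Luc reporter cells are seeded in medium with 1% fetal bovine serum and exposed overnight to compound (up to 10 μM, 0.1% DMSO). Next, luciferase signal is read by luminescence. Finally, EC50 is fitted, or percent inhibition at 10 μM is reported above 10 μM.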

SMILES	EC50 [1] [µM]	inhibition at 10 µM [1] [%]	inhibition at 10 µM (SW480 colon cancer cells) [%]	EC50 (SW480 colon cancer cells) [µM]	EC50 [2] [µM]	inhibition at 10 µM [2] [%]
CCC(=O)Nc1cncc(-c2ccc3[nH]nc(-c4nc5c(-c6cccc(F)c6)nccc5[nH]4)c3n2)c1 [Compound 1, N-(5-(3-(4-(3-Fluorophenyl)-1H-imidazo[4,5-c]pyridin-2-yl)-1H-pyrazolo [4,3-b]pyridin-5-yl)pyridin-3-yl)propionamide]	> 10	0	28	> 10	> 10	29.8
Fc1cccc(-c2nccc3[nH]c(-c4n[nH]c5ccc(-c6cncc(CN7CCC(F)(F)C7)c6)nc45)nc23)c1 [Compound 26, 5-(5-((3,3-Difluoropyrrolidin-1-yl)methyl)pyridin-3-yl)-3-(4-(3-fluorophenyl)-1H-imidazo[4,5-c]pyridin-2-yl)-1H-pyrazolo[4,3-b]pyridine]	> 10	0	–	1.24	0.547	–
CCC(=O)Nc1cncc(-c2ccc3[nH]nc(-c4nc5c(N6CCCCC6)nccc5[nH]4)c3n2)c1 [Compound 169, N-(5-(3-(4-(Piperidin-1-yl)-1H-imidazo[4,5-c]pyridin-2-yl)-1H-pyrazolo [4,3-b]pyridin-5-yl)pyridin-3-yl)propionamide]	> 10	42.6	–	3.8	4.2	–
CCCCC(=O)Nc1cncc(-c2ccc3[nH]nc(-c4nc5c(-c6ccoc6)nccc5[nH]4)c3n2)c1 [Compound 327, N-(5-(3-(4-(Furan-3-yl)-1H-imidazo[4,5-c]pyridin-2-yl)-1H-pyrazolo[4,3-b]pyridin-5-yl)pyridin-3-yl)pentanamide]	> 10	22.5	10.1	> 10	2.03	–
CC(C)(C)CC(=O)Nc1cncc(-c2ccc3[nH]nc(-c4nc5cnccc5[nH]4)c3n2)c1 [Compound 268, N-(5-(3-(1H-Imidazo[4,5-c]pyridin-2-yl)-1H-pyrazolo[4,3-b]pyridin-5-yl)pyridin-3-yl)-3,3-dimethylbutanamide]	> 10	19	0	> 10	> 10	9.5
